Data: ChEMBL document CHEMBL1128969, “Design, synthesis and in vitro activities of a series of benzimidazole/benzoxazole glycoprotein IIb/IIIa inhibitors” (Bioorg Med Chem Lett, 1996)

Species: Homo sapiens
Assay: In vitro inhibition of platelet aggregation using Human platelet-Rich Plasma
Assay type: functional

SMILES	IC50	Inhibition
NCc1ccc(-c2nc3cc(C(=O)N[C@@H](CC(=O)O)C(=O)NCCc4c[nH]c5ccccc45)ccc3[nH]2)cc1	61 µM	–
O=C(O)CCNC(=O)c1ccc2c(c1)ncn2CCCC1CCNCC1	16 µM	–
Cc1nc2cc(C(=O)NCCC(=O)O)ccc2n1Cc1ccc(C(=N)N)cc1	11 µM	–
CCCCOC(=O)N[C@@H](CNC(=O)c1ccc2[nH]c(-c3ccc(C(=N)N)cc3)nc2c1)C(=O)O	0.05 µM	–
CCCCOC(=O)N[C@@H](CNC(=O)c1ccc2nc(-c3ccc(C(=N)N)cc3)oc2c1)C(=O)O	0.02 µM	–
NCc1ccc(-c2nc3cc(C(=O)N[C@@H](CC(=O)O)C(=O)NCCc4ccccc4)ccc3[nH]2)cc1	–	16%

The remaining compounds from weak to strong by IC50, led by results:

IC50	SMILES	Inhibition
100 µM	NCc1ccc(-c2nc3cc(C(=O)NCCC(=O)O)ccc3[nH]2)cc1	–
83 µM	NCc1ccc(Cn2cnc3cc(C(=O)NCCC(=O)O)ccc32)cc1	–
6.8 µM	N=C(N)c1ccc(Cn2cnc3cc(C(=O)NCCC(=O)O)ccc32)cc1	–
0.02 µM	CCCCOC(=O)N[C@@H](CNC(=O)c1ccc2oc(-c3ccc(C(=N)N)cc3)nc2c1)C(=O)O	–
0.01 µM	Cc1ccc(S(=O)(=O)N[C@@H](CNC(=O)c2ccc3oc(-c4ccc(C(=N)N)cc4)nc3c2)C(=O)O)cc1	–
0.01 µM	Cc1ccc(S(=O)(=O)N[C@@H](CNC(=O)c2ccc3nc(-c4ccc(C(=N)N)cc4)oc3c2)C(=O)O)cc1	–
